In patent US20210115494A1, “Improved method for measurement of microbial biomass” (Mycometer A/S, priority 2018, published 2021):

Assays:
[1] = tested on: NAHA activity from Cat dander; test: NAHA activity assay, cat dander; type: biochemical; conditions: 30 min
Procedure: (§1) In order to determine NAHA activity in different samples, the technology in WO 98/033934 was employed: A sample containing a dried or freeze dried organism is added to a buffer solution containing 4-Methylumbelliferyl N-acetyl-β-D-glucosaminide in a concentration of 20 μM. The reaction-time is varied depending on the ambient temperature and according to a reaction-time/temperature data sheet previously developed for fungal NAHA activity at various temperatures, and is 30 minutes at 23° C. The resulting fluorescence formed during the reaction time is monitored in a calibrated fluorometer.
(§2) Experiments were conducted where varying concentrations of AgNO3 was added to an analysis substrate. Furthermore, the experiments where performed on dried or freeze dried materials where both intact and fragmented cells are to be expected to be present.
(§3) Experiments analogous to those in example 1 were carried out, but instead of using non-specific inhibitors, the effect of different concentrations of DNJNAc on the NAHA activity in various biomass containing samples was investigated.

[2] = tested on: NAHA activity from Lepidoglyphus destructor (Storage mite); test: NAHA activity assay, storage mite; type: biochemical; conditions: for NAHA activity, control without Ag+ = 100%: Lepidoglyphus destructor (Storage mite), 30 min
Procedure: as §1, §2, §3

[3] = tested on: NAHA activity from Dermatophagoides pteronyssinus (Dust mite); test: NAHA activity assay, dust mite; type: biochemical; conditions: Dermatophagoides pteronyssinus (Dust mite), 30 min
Procedure: as §1, §2, §3

[4] = tested on: NAHA activity from Fusarium culmorum; test: NAHA activity assay, Fusarium culmorum; type: biochemical
Procedure: as §1, §2, §3

[5] = tested on: NAHA activity from Ambrosia psilostachya (Rag weed pollen); test: NAHA activity assay, rag weed pollen; type: biochemical; conditions: 30 min
Procedure: as §1, §2, §3

[6] = tested on: NAHA activity in Cladosporium spp.; test: NAHA activity pilot experiment, Cladosporium spp.; type: biochemical; conditions: 10 μM
Procedure: as §1

[7] = tested on: NAHA activity from Penicillium crysogenum; test: NAHA activity assay, Penicillium crysogenum; type: biochemical; conditions: Penicillium crysogenum
Procedure: as §1, §2, §3

[8] = tested on: fungal NAHA activity; test: NAHA activity assay, fungal sources overall; type: biochemical, fungi
Procedure: as §1, §2, §3
The experiments were performed with whole cell/organism cultures rather than purified enzyme, which is normally used in experiments on specific inhibition. It is plausible, though, that the surprising non-specific inhibition effect observed for Ag^+ and Hg^+ could be due to the inhibitors being delayed in physically contacting the NAHA enzyme in the fungi when compared to other types of biomass.

[9] = tested on: NAHA activity from Cladosporium sphaerospermum; test: NAHA activity assay, Cladosporium sphaerospermum; type: biochemical; conditions: Cladosporium sphaerospermum
Procedure: as §1, §2, §3

[10] = tested on: NAHA activity from Acremonium spp.; test: NAHA activity assay, Acremonium spp.; type: biochemical; conditions: Acremonium spp.
Procedure: as §1, §2, §3

[11] = tested on: NAHA activity from Aureobasidium pullulans; test: NAHA activity assay, Aureobasidium pullulans; type: biochemical
Procedure: as §1, §2, §3

[12] = tested on: NAHA activity from Birch pollen; test: NAHA activity assay, birch pollen; type: biochemical; conditions: Birch pollen, 30 min
Procedure: as §1, §2, §3

[13] = tested on: NAHA activity from Human skin cells; test: NAHA activity assay, human skin cells; type: biochemical; conditions: 30 min
Procedure: as §1, §2, §3

[14] = tested on: NAHA activity from Aspergillus fumigatus fresh from cultivation; test: NAHA activity assay, Aspergillus fumigatus fresh from cultivation; type: biochemical
Procedure: as §1, §2

[15] = tested on: NAHA activity from Graham-flour; test: NAHA activity assay (4-methylumbelliferyl N-acetyl-β-D-glucosaminide, fluorescence), Graham-flour; type: biochemical; conditions: Graham-flour, 30 min
Procedure: as §1, §2, §3

[16] = tested on: NAHA activity from Stachybotrys chartarum; test: NAHA activity assay, Stachybotrys chartarum; type: biochemical
Procedure: as §1, §2, §3

[17] = tested on: NAHA activity from Grass pollen; test: NAHA activity assay, grass pollen; type: biochemical; conditions: for NAHA activity, control without Ag+ = 100%: Grass pollen, 30 min
Procedure: as §1, §2, §3

[18] = tested on: NAHA activity from Aspergillus fumigatus freeze dried; test: NAHA activity assay, Aspergillus fumigatus freeze dried; type: biochemical; conditions: Aspergillus fumigatus freeze dried
Procedure: as §1, §2, §3

[19] = tested on: NAHA activity from Mugworth pollen; test: NAHA activity assay, mugworth pollen; type: biochemical; conditions: 30 min
Procedure: as §1, §2, §3

[20] = tested on: NAHA activity in Alternaria spp.; test: NAHA activity pilot experiment, Alternaria spp.; type: biochemical; conditions: 10 μM
Procedure: as §1

[21] = tested on: NAHA activity from Mucor hiemalis; test: NAHA activity assay, Mucor hiemalis; type: biochemical
Procedure: as §1, §2, §3

[22] = tested on: non-fungal NAHA activity; test: NAHA activity assay, non-fungal sources overall; type: biochemical
Procedure: as §1, §2, §3

SMILES: O=[N+]([O-])[O-].[Ag+] [Ag+, AgNO3]
- NAHA activity, control without Ag+ = 100% ([1]; Ag+ 10 μM): 96%
- NAHA activity, control without Ag+ = 100% ([1]; Ag+ 25 μM): 69%
- NAHA activity, control without Ag+ = 100% ([1]; Ag+ 100 μM): 6%
- NAHA activity, control without Ag+ = 100% ([1]; Ag+ 400 μM): 3%
- NAHA activity, control without Ag+ = 100% ([2]; Ag+ 10 μM): 3%
- NAHA activity, control without Ag+ = 100% ([2]; Ag+ 25 μM): 2%
- NAHA activity, control without Ag+ = 100% ([2]; Ag+ 100 μM): 1%
- NAHA activity, control without Ag+ = 100% ([2]; Ag+ 400 μM): 0%
- inhibition of NAHA activity ([2]; pilot experiment, 10 μM, mite Lepidoglyphus): almost total inhibition
- NAHA activity, control without Ag+ = 100% ([3]; Ag+ 10 μM): 80%
- NAHA activity, control without Ag+ = 100% ([3]; Ag+ 25 μM): 57%
- NAHA activity, control without Ag+ = 100% ([3]; Ag+ 100 μM): 13%
- NAHA activity, control without Ag+ = 100% ([3]; Ag+ 400 μM): 6%
- NAHA activity, 0 μM Ag+ = 100% ([4]; Ag+ 10 μM): 107%
- NAHA activity, 0 μM Ag+ = 100% ([4]; Ag+ 25 μM): 107%
- NAHA activity, 0 μM Ag+ = 100% ([4]; Ag+ 100 μM): 110%
- NAHA activity, 0 μM Ag+ = 100% ([4]; Ag+ 400 μM): 102%
- NAHA activity, control without Ag+ = 100% ([5]; Ag+ 10 μM): 69%
- NAHA activity, control without Ag+ = 100% ([5]; Ag+ 25 μM): 55%
- NAHA activity, control without Ag+ = 100% ([5]; Ag+ 100 μM): 19%
- NAHA activity, control without Ag+ = 100% ([5]; Ag+ 400 μM): 17%
- effect on the NAHA activity [6]: no significant effect
- NAHA activity, 0 μM Ag+ = 100% ([7]; Ag+ 10 μM): 98%
- NAHA activity, 0 μM Ag+ = 100% ([7]; Ag+ 25 μM): 106%
- NAHA activity, 0 μM Ag+ = 100% ([7]; Ag+ 100 μM): 87%
- NAHA activity, 0 μM Ag+ = 100% ([7]; Ag+ 400 μM): 65%
- reduction of the fungal NAHA activity ([8]; 100 μM in the assay substrate): zero to very low reduction
- fungal NAHA activity retained ([8]; 400 μM): a high percentage
- inhibition of the fungal NAHA activity ([8]; inhibitor added to the fungal culture prior to the enzyme assay): complete inhibition
- NAHA activity, 0 μM Ag+ = 100% ([9]; Ag+ 10 μM): 212%
- NAHA activity, 0 μM Ag+ = 100% ([9]; Ag+ 25 μM): 154%
- NAHA activity, 0 μM Ag+ = 100% ([9]; Ag+ 100 μM): 137%
- NAHA activity, 0 μM Ag+ = 100% ([9]; Ag+ 400 μM): 167%
- NAHA activity, 0 μM Ag+ = 100% ([10]; Ag+ 10 μM): 175%
- NAHA activity, 0 μM Ag+ = 100% ([10]; Ag+ 25 μM): 143%
- NAHA activity, 0 μM Ag+ = 100% ([10]; Ag+ 100 μM): 159%
- NAHA activity, 0 μM Ag+ = 100% ([10]; Ag+ 400 μM): 132%
- effect on the NAHA activity ([10]; pilot experiment, 10 μM): no significant effect
- NAHA activity, 0 μM Ag+ = 100% ([11]; Ag+ 10 μM): 89%
- NAHA activity, 0 μM Ag+ = 100% ([11]; Ag+ 25 μM): 91%
- NAHA activity, 0 μM Ag+ = 100% ([11]; Ag+ 100 μM): 96%
- NAHA activity, 0 μM Ag+ = 100% ([11]; Ag+ 400 μM): 76%
- NAHA activity, control without Ag+ = 100% ([12]; Ag+ 10 μM): 91%
- NAHA activity, control without Ag+ = 100% ([12]; Ag+ 25 μM): 74%
- NAHA activity, control without Ag+ = 100% ([12]; Ag+ 100 μM): 18%
- NAHA activity, control without Ag+ = 100% ([12]; Ag+ 400 μM): 11%
- NAHA activity, control without Ag+ = 100% ([13]; Ag+ 10 μM): 67%
- NAHA activity, control without Ag+ = 100% ([13]; Ag+ 25 μM): 65%
- NAHA activity, control without Ag+ = 100% ([13]; Ag+ 100 μM): 63%
- NAHA activity, control without Ag+ = 100% ([13]; Ag+ 400 μM): 46%
- NAHA activity, 0 μM Ag+ = 100% ([14]; Ag+ 10 μM): 91%
- NAHA activity, 0 μM Ag+ = 100% ([14]; Ag+ 25 μM): 103%
- NAHA activity, 0 μM Ag+ = 100% ([14]; Ag+ 100 μM): 95%
- NAHA activity, 0 μM Ag+ = 100% ([14]; Ag+ 400 μM): 87%
- NAHA activity, control without Ag+ = 100% ([15]; Ag+ 10 μM): 35%
- NAHA activity, control without Ag+ = 100% ([15]; Ag+ 25 μM): 33%
- NAHA activity, control without Ag+ = 100% ([15]; Ag+ 100 μM): 25%
- NAHA activity, control without Ag+ = 100% ([15]; Ag+ 400 μM): 19%
- NAHA activity, 0 μM Ag+ = 100% ([16]; Ag+ 10 μM): 97%
- NAHA activity, 0 μM Ag+ = 100% ([16]; Ag+ 25 μM): 91%
- NAHA activity, 0 μM Ag+ = 100% ([16]; Ag+ 100 μM): 83%
- NAHA activity, 0 μM Ag+ = 100% ([16]; Ag+ 400 μM): 93%
- NAHA activity, control without Ag+ = 100% ([17]; Ag+ 10 μM): 41%
- NAHA activity, control without Ag+ = 100% ([17]; Ag+ 25 μM): 22%
- NAHA activity, control without Ag+ = 100% ([17]; Ag+ 100 μM): 6%
- NAHA activity, control without Ag+ = 100% ([17]; Ag+ 400 μM): 8%
- inhibition of NAHA activity ([17]; pilot experiment, 10 μM, grass pollen): almost total inhibition
- NAHA activity, 0 μM Ag+ = 100% ([18]; Ag+ 10 μM): 104%
- NAHA activity, 0 μM Ag+ = 100% ([18]; Ag+ 25 μM): 108%
- NAHA activity, 0 μM Ag+ = 100% ([18]; Ag+ 100 μM): 98%
- NAHA activity, 0 μM Ag+ = 100% ([18]; Ag+ 400 μM): 91%
- NAHA activity, control without Ag+ = 100% ([19]; Ag+ 10 μM): 46%
- NAHA activity, control without Ag+ = 100% ([19]; Ag+ 25 μM): 23%
- NAHA activity, control without Ag+ = 100% ([19]; Ag+ 100 μM): 9%
- NAHA activity, control without Ag+ = 100% ([19]; Ag+ 400 μM): 8%
- effect on the NAHA activity [20]: no significant effect
- NAHA activity, 0 μM Ag+ = 100% ([21]; Ag+ 10 μM): 88%
- NAHA activity, 0 μM Ag+ = 100% ([21]; Ag+ 25 μM): 63%
- NAHA activity, 0 μM Ag+ = 100% ([21]; Ag+ 100 μM): 114%
- NAHA activity, 0 μM Ag+ = 100% ([21]; Ag+ 400 μM): 57%
- reduction of the non-fungal NAHA activity, on average ([22]; 100 μM in the assay substrate): 82%
- NAHA activity retained, average of non-fungal sources, of the control ([22]; 400 μM): 13%
